Values quoted from earlier work, collected in patent publication US20130085461A1, “Method for Pre-Debriding Treatment of Non-Viable Skin Tissue and Compositions and System Thereof” (BIOMEDICAL CONCEPTS LLC, priority 2011, published 2013).
Like-named read-outs stand apart in the source and are kept apart here.

Biological target: T1, rat tail Type I collagen (Rattus norvegicus, UniProt P02454+P02466)
T1 construct: host or cells: rat tail (tissue), as reported in the cited work
Conditions: non-viable rat tail Type I collagen

T1 sequence (P02454 152-1207 limits assumed): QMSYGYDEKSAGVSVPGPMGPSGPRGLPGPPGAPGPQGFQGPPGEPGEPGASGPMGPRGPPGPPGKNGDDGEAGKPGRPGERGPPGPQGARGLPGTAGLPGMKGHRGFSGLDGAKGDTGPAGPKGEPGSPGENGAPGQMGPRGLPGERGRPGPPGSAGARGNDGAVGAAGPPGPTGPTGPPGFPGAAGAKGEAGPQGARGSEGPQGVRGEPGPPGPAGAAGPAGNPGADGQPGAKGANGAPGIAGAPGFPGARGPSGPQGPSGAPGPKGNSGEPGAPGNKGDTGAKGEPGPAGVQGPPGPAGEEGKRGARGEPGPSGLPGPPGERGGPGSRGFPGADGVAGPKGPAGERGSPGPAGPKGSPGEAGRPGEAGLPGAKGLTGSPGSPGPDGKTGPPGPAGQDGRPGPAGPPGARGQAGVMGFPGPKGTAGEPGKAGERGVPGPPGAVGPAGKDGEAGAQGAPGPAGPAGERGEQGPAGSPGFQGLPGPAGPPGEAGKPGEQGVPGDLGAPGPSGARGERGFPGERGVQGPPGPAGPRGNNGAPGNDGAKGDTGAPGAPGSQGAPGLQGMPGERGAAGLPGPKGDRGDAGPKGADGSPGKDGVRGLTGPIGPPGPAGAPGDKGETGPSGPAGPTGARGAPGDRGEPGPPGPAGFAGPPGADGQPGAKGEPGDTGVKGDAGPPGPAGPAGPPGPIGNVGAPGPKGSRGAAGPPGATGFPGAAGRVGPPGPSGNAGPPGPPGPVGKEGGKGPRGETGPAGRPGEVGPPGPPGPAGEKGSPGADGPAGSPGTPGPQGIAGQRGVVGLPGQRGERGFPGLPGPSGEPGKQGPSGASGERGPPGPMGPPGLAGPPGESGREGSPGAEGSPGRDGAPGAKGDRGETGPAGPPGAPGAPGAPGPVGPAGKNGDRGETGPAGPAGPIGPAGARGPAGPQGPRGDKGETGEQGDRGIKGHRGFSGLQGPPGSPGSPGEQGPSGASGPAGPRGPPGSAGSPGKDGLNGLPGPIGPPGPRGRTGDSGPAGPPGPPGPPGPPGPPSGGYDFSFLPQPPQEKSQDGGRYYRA
T1 sequence (P02466 86-1125 limits assumed): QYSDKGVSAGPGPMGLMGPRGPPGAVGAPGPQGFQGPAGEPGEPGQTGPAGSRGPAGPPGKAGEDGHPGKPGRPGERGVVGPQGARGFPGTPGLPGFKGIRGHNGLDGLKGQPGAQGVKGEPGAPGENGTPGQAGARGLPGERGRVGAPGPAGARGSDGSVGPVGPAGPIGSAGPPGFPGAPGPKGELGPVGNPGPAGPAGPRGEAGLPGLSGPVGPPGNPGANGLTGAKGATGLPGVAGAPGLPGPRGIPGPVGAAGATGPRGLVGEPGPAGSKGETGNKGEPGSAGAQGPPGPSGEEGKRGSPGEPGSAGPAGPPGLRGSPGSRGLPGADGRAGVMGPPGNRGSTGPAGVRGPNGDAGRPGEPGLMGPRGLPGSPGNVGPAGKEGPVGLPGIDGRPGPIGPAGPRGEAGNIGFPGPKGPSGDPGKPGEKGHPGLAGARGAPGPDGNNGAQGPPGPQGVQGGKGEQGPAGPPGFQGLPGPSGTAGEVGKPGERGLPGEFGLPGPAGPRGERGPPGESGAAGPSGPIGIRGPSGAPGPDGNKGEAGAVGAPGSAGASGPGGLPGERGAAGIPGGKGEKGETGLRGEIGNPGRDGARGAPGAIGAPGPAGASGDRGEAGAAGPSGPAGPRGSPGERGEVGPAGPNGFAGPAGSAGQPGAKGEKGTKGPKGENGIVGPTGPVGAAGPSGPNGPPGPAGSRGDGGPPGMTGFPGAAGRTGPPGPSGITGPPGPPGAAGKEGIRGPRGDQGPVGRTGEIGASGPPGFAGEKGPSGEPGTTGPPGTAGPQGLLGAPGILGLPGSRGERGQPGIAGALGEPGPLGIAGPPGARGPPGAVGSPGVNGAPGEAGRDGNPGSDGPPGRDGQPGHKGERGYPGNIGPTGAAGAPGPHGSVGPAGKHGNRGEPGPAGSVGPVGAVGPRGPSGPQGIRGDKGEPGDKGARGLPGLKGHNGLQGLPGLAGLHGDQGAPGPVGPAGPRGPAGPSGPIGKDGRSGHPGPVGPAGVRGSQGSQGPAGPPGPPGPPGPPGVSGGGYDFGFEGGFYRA

Row | Structure (SMILES) | reduction of denaturation temperature (Tm=67.5° C.) (10 mole %) [°C] | reduction of denaturation temperature (Tm=67.5° C.) (3M) [°C]
1 | CCCO [n-propanol] | 3.5 | 
2 | NC(N)=O [urea] |  | 13.5
